According to patent publication US20210308196A1, “COMPOSITIONS AND METHODS TO PROMOTE HOST DEFENSE AND STIMULATE, EXPAND, AND/OR RESET T CELL REPERTOIRES” (EVOLVE BIOSYSTEMS, INC., priority 2018, published 2021):

Test: Nutritional intervention study on autoimmune/allergic disease (T1D) in breastfed infants
Type: in vivo, human
Conditions: colonized infants
Source text: Administration of activated B. infantis to breastfed neonates and infants leads consistently to high levels of B. infantis in the stool.
This is a randomized, double-blinded, placebo-controlled, parallel group study design (See FIG. 15). After the parent/guardian(s) sign the informed consent, infants will be screened for all the eligibility criteria, and if found eligible will be enrolled in the study. Eligible infants must first undergo an HLA genotyping from a cord blood sample collected at birth. Based on their HLA genotype they will be either placed in group 1 (low risk by HLA genotyping) and group 2 (high risk by HLA genotype). Each group will be randomly assigned to the placebo or treatment groups. […] Parent/guardian(s) of the infants will be instructed to maintain breastfeeding (at least 1 feed/day) for at least 6 months, and up to 12 months if possible during the treatment period. Following the 12-month treatment period, individuals will be followed at regular intervals with study visits and assessments. Individuals will be followed until a sufficient number of events (seroconversion to multiple (2) islet autoantibodies) are accumulated to achieve the planned power for the final analysis. […]

With “Bifidobacterium longum subsp. infantis EVC001 [B. infantis EVC001]” the “Rates of childhood-onset autoimmune and allergic disease” value was “decreases” and the TReg cell numbers was “increases”.
